Assay results reported in patent publication US11440923B2, “Substituted macrocyclic indole derivatives” (Bayer Aktiengesellschaft, priority 2017, dated 2022).
Where a name gives a salt, the structure may show the parent alone. Read-outs that look alike come from different tables or passages of the source.

Experiments:
[1] = molecular target: BCL-XL (Homo sapiens (Human), UniProt Q07817); test: Protein-protein interaction assay BCL-XL/Bad BH3 peptide (BCL-XL assay, TR-FRET); assay type: binding; details: read-out: BCL-XL Assay IC50 (median)
In short: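 TR-FRET competition: 1 nM His-tagged human BCL-XL (1-212) versus 1 nM biotin-PEG Bad BH3 peptide tracer, buffer 50 mM Tris pH 7, NaCl, KF, DTT. Compound preincubated with protein 10 min at 22 °C; read after 1 h at 22 °C plus overnight at 4 °C. IC50 by 4-parameter regression of normalized ratios.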

[2] = tested on: SUDHL5 cells; test: Induction of caspase-3/7 activity in SUDHL5 cells (Assay 4); assay type: cell-based
In short: (§1)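 Read-out: Caspase-Glo 3/7 luminescence (1 h, 37 °C) after cells, plated overnight, were treated with compounds for 3 h at 37 °C. Signal corrected for cell-free medium background and expressed relative to DMSO control mean.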

[3] = tested on: SUDHL10 cells; test: Induction of caspase-3/7 activity in SUDHL10 cells (Assay 4); assay type: cell-based
In short: as §1

[4] = tested on: SUDHL5 cells; test: Antiproliferation assay SUDHL5 (Assay 7); assay type: cell-based
In short: (§2)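 Cells are plated alongside a time-zero reference plate and held overnight at 37 °C. Treated plates are incubated 72 h, then ATP-based luminescence (CellTiter-Glo) is read. IC50 uses day 0 as baseline and DMSO as untreated control.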

[5] = tested on: AMO-1 cells; test: Antiproliferation assay AMO-1 (Assay 7); assay type: cell-based
In short: as §2

[6] = tested on: HMC-1-8 cells; test: Antiproliferation assay HMC-1-8 (Assay 7); assay type: cell-based
In short: as §2

[7] = caspase-3/7 induction, 3 h; read-out: Caspase SUDHL5 EC50 (median)
[8] = caspase-3/7 induction, 3 h; read-out: Caspase SUDHL10 EC50 (median)
[9] = 72 h, CellTiter-Glo, read-out: Antiproli SUDHL5 IC50 (median)
[10] = 72 h, CellTiter-Glo; read-out: Antiproli AMO-1 IC50 median
[11] = 72 h, CellTiter-Glo; read-out: Antiproli HMC-1-8 IC50 median
[12] = read-out: Caspase SUDHL5 EC50 (median); caspase-3/7 induction, 3 h
[13] = read-out: Caspase SUDHL10 EC50 (median); caspase-3/7 induction, 3 h
[14] = read-out: Antiproli AMO-1 IC50 median; 72 h, CellTiter-Glo
[15] = Homo sapiens, SU-DHL-5, 3 h, caspase-3/7 induction, 3 h; read-out: Caspase SUDHL5 EC50 (median)
[16] = Homo sapiens, SU-DHL10, 3 h, caspase-3/7 induction, 3 h; read-out: Caspase SUDHL10 EC50 (median)
[17] = Homo sapiens, SU-DHL-5, 72 h, 72 h, CellTiter-Glo, read-out: Antiproli SUDHL5 IC50 (median)
[18] = Homo sapiens, AMO1, 72 h, 72 h, CellTiter-Glo; read-out: Antiproli AMO-1 IC50 median
[19] = 72 h, CellTiter-Glo, read-out: Antiproli HMC-1-8 IC50 median

Chain of BCL-XL (Q07817 1-212): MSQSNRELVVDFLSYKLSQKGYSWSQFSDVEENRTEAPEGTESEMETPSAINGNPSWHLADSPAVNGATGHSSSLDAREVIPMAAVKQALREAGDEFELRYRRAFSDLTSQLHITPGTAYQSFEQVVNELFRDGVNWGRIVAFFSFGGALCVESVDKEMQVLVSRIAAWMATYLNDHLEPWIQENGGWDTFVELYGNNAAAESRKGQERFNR

IC50 [1] [nM] | EC50 [2, 12] [nM] | EC50 [3, 13] [nM] | Compound | EC50 [2, 7] [nM] | EC50 [3, 8] [nM] | IC50 [4, 9] [nM] | IC50 [5, 10] [nM] | IC50 [6, 11] [nM] | IC50 [5, 14] [nM] | EC50 [2, 15] [nM] | EC50 [3, 16] [nM] | IC50 [4, 17] [nM] | IC50 [5, 18] [nM] | IC50 [6, 19] [nM] | other results
> 20000 | 2100 | 5900 | Cc1c2c(nn1C)C(C1CC1)OCCCCn1c(C(=O)O)c(CCCOc3cccc4ccccc34)c3ccc(Cl)c-2c31 (single isomer, unassigned; enantiomer 1) [Example 35, (+)-4-chloro-15-cyclopropyl-2,3-dimethyl-7-{3-[(naphthalen-1-yl)oxy]propyl}-2,10,11,12,13,15-hexahydropyrazolo[4′,3′:9,10][1,6]oxazacycloundecino[8,7,6-hi]indole-8-carboxylic Acid N-ethylethanamine Salt (Enantiomer 1)] |  |  |  |  |  | 3710 |  |  |  |  |  | IC50 ([4]; Homo sapiens, SU-DHL-5, 72 h, read-out: Antiproli SUDHL5 IC50 (median), 72 h, CellTiter-Glo): 2700 nM; IC50 ([6]; 72 h, read-out: Antiproli HMC-1-8 IC50 median, 72 h, CellTiter-Glo): 19700 nM
13300 |  |  | CCc1c2c(nn1C)C(CCC(C)(C)O)OCCCCn1c(C(=O)O)c(CCCOc3cccc4cc(F)ccc34)c3ccc(Cl)c-2c31 (racemic) [Example 74, (rac)-4-chloro-3-ethyl-7-{3-[(6-fluoronaphthalen-1-yl)oxy]propyl}-(15-rac)-(3-hydroxy-3-methylbutyl)-2-methyl-2,10,11,12,13,15-hexahydropyrazolo[4′,3′:9,10][1,6]oxazacycloundecino[8,7,6-hi]indole-8-carboxylic Acid] |  |  |  |  |  |  | 45 | 33 | 67 | 35.8 | 397 | 
> 20000 |  |  | Cc1c2c(nn1C)C(CCO)OCCCCn1c(C(=O)O)c(CCCOc3cccc4ccccc34)c3ccc(Cl)c-2c31 (single isomer, unassigned; enantiomer 2) [Example 32, (−)-4-chloro-15-(2-hydroxyethyl)-2,3-dimethyl-7-{3-[(naphthalen-1-yl)oxy]propyl}-2,10,11,12,13,15-hexahydropyrazolo[4′,3′:9,10][1,6]oxazacycloundecino[8,7,6-hi]indole-8-carboxylic Acid (Enantiomer 2)] | > 33000 | > 33000 | 26000 | 25600 | > 33000 |  |  |  |  |  |  | 
11000 | 76 | 160 | CCc1c2c(nn1C)C(CC(C)(C)O)OCCCCn1c(C(=O)O)c(CCCOc3cccc4cc(F)ccc34)c3ccc(Cl)c-2c31 (single isomer, unassigned; enantiomer 1) [Example 53, (+)-4-chloro-3-ethyl-7-{3-[(6-fluoronaphthalen-1-yl)oxy]propyl}-15-(2-hydroxy-2-methylpropyl)-2-methyl-2,10,11,12,13,15-hexahydropyrazolo[4′,3′:9,10][1,6]oxazacycloundecino[8,7,6-hi]indole-8-carboxylic Acid—N-ethylethanamine Salt (Enantiomer 1)] |  |  |  |  |  | 185 |  |  |  |  |  | IC50 ([4]; read-out: Antiproli SUDHL5 IC50 (median), 72 h, CellTiter-Glo): 99 nM; IC50 ([6]; read-out: Antiproli HMC-1-8 IC50 median; 72 h, CellTiter-Glo): 983 nM

Compound | IC50 [1] [nM] | EC50 [2, 12] [nM] | EC50 [3, 13] [nM] | EC50 [2, 7] [nM] | EC50 [3, 8] [nM] | IC50 [4, 9] [nM] | IC50 [5, 10] [nM] | IC50 [6, 11] [nM] | IC50 [5, 14] [nM] | EC50 [2, 15] [nM] | EC50 [3, 16] [nM] | IC50 [4, 17] [nM] | IC50 [5, 18] [nM] | IC50 [6, 19] [nM] | other results
CCc1c2c(nn1C)C(CCC1CCOCC1)OCCCCn1c(C(=O)O)c(CCCOc3cccc4cc(F)ccc34)c3ccc(Cl)c-2c31 (single isomer, unassigned; enantiomer 2) [Example 62, (−)-4-chloro-3-ethyl-7-{3-[(6-fluoronaphthalen-1-yl)oxy]propyl}-2-methyl-15-[2-(oxan-4-yl)ethyl]-2,10,11,12,13,15-hexahydropyrazolo[4′,3′:9,10][1,6]oxazacycloundecino[8,7,6-hi]indole-8-carboxylic Acid (Enantiomer 2)] | > 20000 |  |  | 4200 | 6900 | 5300 | 1920 | 21900 |  |  |  |  |  |  | 
CCc1c2c(nn1C)C(CCN1CCC(F)(F)C1)OCCCCn1c(C(=O)O)c(CCCOc3cccc4cc(F)ccc34)c3ccc(Cl)c-2c31 (racemic) [Example 55, (rac)-4-chloro-(15-rac)-[2-(3,3-difluoropyrrolidin-1-yl)ethyl]-3-ethyl-7-{3-[(6-fluoronaphthalen-1-yl)oxy]propyl}-2-methyl-2,10,11,12,13,15-hexahydropyrazolo[4′,3′:9,10][1,6]oxazacycloundecino[8,7,6-hi]indole-8-carboxylic acid—2-hydroxypropane-1,2,3-tricarboxylic Acid Salt] | > 20000 |  |  |  |  |  |  |  |  | 32 | 47 | 67 | 75.3 | 172 | 
